Source: patent US20240293558A1, “KRAS INHIBITOR CONJUGATES” (Erasca, Inc., priority 2021, published 2024)
Like-named read-outs stand apart in the source and are kept apart here.

Legend:
KRAS (WT) = target: T1, KRAS (WT) (Homo sapiens, UniProt P01116); assay: In-vitro RAS-RAF binding assay (RRB), HTRF/FRET; format: biochemical
T1 construct: Biotinylated KRAS protein amino acids 1-169 (produced at Erasca); made in house
Procedure, shortened: (§1)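 Biotinylated KRAS 1-169 (streptavidin-terbium donor, 30 nM) and GST-cRAF RBD (anti-GST d2 acceptor, 30 nM) in HEPES pH 7.5, NaCl, MgCl2, DTT buffer. After compound incubation, SOS1 catalytic domain plus GTPgS drive 60 min nucleotide exchange. HTRF FRET read at equilibrium, in duplicate.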

KRAS G12D = KRAS G12D (Homo sapiens, UniProt P01116, G12D); assay: In-vitro RAS-RAF binding assay (RRB), HTRF/FRET; format: biochemical; parameters: Biotinylated KRAS protein amino acids 1-169 (produced at Erasca); made in house
Procedure, shortened: as §1

[1] = Table 2, average of multiple runs of each compound, read-out: Inhibition of RAS-RAF Binding (in-vitro) KRAS (WT) IC50
[2] = Table 2, average of multiple runs of each compound, read-out: Inhibition of RAS-RAF Binding (in-vitro) KRAS (G12D) IC50

T1 sequence (P01116 1-169 isoform P01116-2): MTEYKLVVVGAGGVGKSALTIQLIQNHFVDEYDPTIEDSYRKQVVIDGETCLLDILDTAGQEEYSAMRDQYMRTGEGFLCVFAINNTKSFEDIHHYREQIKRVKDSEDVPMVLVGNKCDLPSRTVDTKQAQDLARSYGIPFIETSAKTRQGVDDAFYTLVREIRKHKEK
Chain of KRAS G12D (P01116 1-169 isoform P01116-2 G12D): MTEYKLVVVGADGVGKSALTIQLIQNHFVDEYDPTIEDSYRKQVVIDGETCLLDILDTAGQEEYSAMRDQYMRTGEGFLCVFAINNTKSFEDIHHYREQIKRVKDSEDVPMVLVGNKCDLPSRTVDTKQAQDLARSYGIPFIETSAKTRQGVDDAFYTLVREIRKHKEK

Structure (SMILES)	IC50 (KRAS (WT); [1]) [nM]	IC50 (KRAS G12D; [2]) [nM]	IC50 (KRAS (WT); Table 1, read-out: Inhibition of RAS-RAF Binding (in-vitro) KRAS (WT) IC50) [nM]	IC50 (KRAS G12D; Table 1, read-out: Inhibition of RAS-RAF Binding (in-vitro) KRAS (G12D) IC50) [nM]	IC50 (KRAS (WT); Inhibition of RAS-RAF Binding (in-vitro) KRAS (WT) IC50 (nM), Table 2, average of multiple runs of each compound) [nM]	IC50 (KRAS G12D; Inhibition of RAS-RAF Binding (in-vitro) KRAS (G12D) IC50 (nM), Table 2, average of multiple runs of each compound) [nM]
C#Cc1c(F)ccc2cc(O)cc(-c3ncc4c(N5CC6CCC(C5)N6)nc(OC[C@@H]5CCCN5CCCOCCC(=O)N[C@H](C(=O)N5C[C@H](O)C[C@H]5C(=O)N[C@@H](C)c5ccc(N6CCC[C@H]6C(N)=O)cc5)C(C)(C)C)nc4c3F)c12 [Example 46, (2S,4R)-1-((2S)-2-(3-(3-((2S)-2-(((4-(3,8-diazabicyclo[3.2.1]octan-3-yl)-7-(8-ethynyl-7-fluoro-3-hydroxynaphthalen-1-yl)-8-fluoropyrido[4,3-d]pyrimidin-2-yl)oxy)methyl)pyrrolidin-1-yl)propoxy)propanamido)-3,3-dimethylbutanoyl)-N-((S)-1-(4-((S)-2-carbamoylpyrrolidin-1-yl)phenyl)ethyl)-4-hydroxypyrrolidine-2-carboxamide]	–	–	–	–	21.4	5.87
Cc1cc(N)nc(-c2c(Cl)cc3c(N4CC5CCC(C4)N5)nc(OC[C@@H]4CCCN4CCCOCCC(=O)N[C@H](C(=O)N4C[C@H](O)C[C@H]4C(=O)NCc4ccc(-c5scnc5C)cc4)C(C)(C)C)nc3c2F)c1C(F)(F)F [Example 2, (2S,4R)-1-[(2S)-2-[3-[3-[(2S)-2-[[7-[6-amino-4-methyl-3-(trifluoromethyl)-2-pyridyl]-6-chloro-4-(3,8-diazabicyclo[3.2.1]octan-3-yl)-8-fluoro-quinazolin-2-yl]oxymethyl]pyrrolidin-1-yl]propoxy]propanoylamino]-3,3-dimethyl-butanoyl]-4-hydroxy-N-[[4-(4-methylthiazol-5-yl)phenyl]methyl]pyrrolidine-2-carboxamide]	4250	17.2	4250	17	–	–
Cc1ccccc1-c1ccc([C@H](C)NC(=O)[C@@H]2C[C@@H](O)CN2C(=O)[C@@H](NC(=O)CCOCCCN2CCC[C@H]2COc2nc(N3CC4CCC(C3)N4)c3cc(Cl)c(-c4ccc(F)c5sc(N)c(C#N)c45)c(F)c3n2)C(C)(C)C)cc1 [Example 26, (2S,4R)-1-((2S)-2-(3-(3-((2S)-2-(((7-(2-amino-3-cyano-7-fluorobenzo[b]thiophen-4-yl)-4-(3,8-diazabicyclo[3.2.1]octan-3-yl)-6-chloro-8-fluoroquinazolin-2-yl)oxy)methyl)pyrrolidin-1-yl)propoxy)propanamido)-3,3-dimethylbutanoyl)-4-hydroxy-N—((S)-1-(2′-methyl-[1,1′-biphenyl]-4-yl)ethyl)pyrrolidine-2-carboxamide]	91.8	12	–	–	–	–

Further lines, with some results ahead:

IC50 (KRAS (WT); [1]) [nM]	IC50 (KRAS G12D; [2]) [nM]	IC50 (KRAS (WT); Table 1, read-out: Inhibition of RAS-RAF Binding (in-vitro) KRAS (WT) IC50) [nM]	IC50 (KRAS G12D; Table 1, read-out: Inhibition of RAS-RAF Binding (in-vitro) KRAS (G12D) IC50) [nM]	Structure (SMILES)	IC50 (KRAS (WT); Inhibition of RAS-RAF Binding (in-vitro) KRAS (WT) IC50 (nM), Table 2, average of multiple runs of each compound) [nM]	IC50 (KRAS G12D; Inhibition of RAS-RAF Binding (in-vitro) KRAS (G12D) IC50 (nM), Table 2, average of multiple runs of each compound) [nM]
24.7	7.53	–	–	C#Cc1c(F)ccc2cc(O)cc(-c3ncc4c(N5CC6CCC(C5)N6)nc(OC[C@@H]5CCCN5CCCOCCC(=O)N[C@H](C(=O)N5C[C@H](O)C[C@H]5C(=O)N[C@@H](C)c5ccc(-c6cccnc6C(F)(F)F)cc5)C(C)(C)C)nc4c3F)c12 [Example 48, (2S,4R)-1-((2S)-2-(3-(3-((2S)-2-(((4-(3,8-diazabicyclo[3.2.1]octan-3-yl)-7-(8-ethynyl-7-fluoro-3-hydroxynaphthalen-1-yl)-8-fluoropyrido[4,3-d]pyrimidin-2-yl)oxy)methyl)pyrrolidin-1-yl)propoxy)propanamido)-3,3-dimethylbutanoyl)-4-hydroxy-N-((S)-1-(4-(2-(trifluoromethyl)pyridin-3-yl)phenyl)ethyl)pyrrolidine-2-carboxamide]	–	–
67	9.79	–	–	C#Cc1c(F)ccc2cc(O)cc(-c3ncc4c(N5CC6CCC(C5)N6)nc(OC[C@@H]5CCCN5CCCOCCC(=O)N[C@H](C(=O)N5C[C@H](O)C[C@H]5C(=O)N[C@@H](C)c5ccc(-c6ccc(F)c(F)c6F)cc5)C(C)(C)C)nc4c3F)c12 [Example 55, (2S,4R)-1-((2S)-2-(3-(3-((2S)-2-(((4-(3,8-diazabicyclo[3.2.1]octan-3-yl)-7-(8-ethynyl-7-fluoro-3-hydroxynaphthalen-1-yl)-8-fluoropyrido[4,3-d]pyrimidin-2-yl)oxy)methyl)pyrrolidin-1-yl)propoxy)propanamido)-3,3-dimethylbutanoyl)-4-hydroxy-N-((S)-1-(2′,3′,4′-trifluoro-[1,1′-biphenyl]-4-yl)ethyl)pyrrolidine-2-carboxamide]	–	–
